In patent US11691986B2, “PTEFB inhibiting macrocyclic compounds” (Bayer Aktiengesellschaft, priority 2017, dated 2023):

Tests used:
CDK9/CycT1 = target: T1, CDK9/CycT1 (Homo sapiens, UniProt P50750); experiment: CDK9/CycT1 high ATP kinase assay (TR-FRET); type: biochemical; conditions: 2 mM ATP; for IC50: Method 1b; for Selectivity high ATP CDK9 over high ATP CDK2: IC50 (high ATP CDK2)/IC50 (high ATP CDK9): minimal values where CDK9 IC50 is at the assay limit of about 1-2 nM
T1 construct: Recombinant full-length His-tagged human CDK9 and CycT1; His; purchased Life Technologies PV4131; host or cells: insect cells
T1 sequence (P50750 whole entry): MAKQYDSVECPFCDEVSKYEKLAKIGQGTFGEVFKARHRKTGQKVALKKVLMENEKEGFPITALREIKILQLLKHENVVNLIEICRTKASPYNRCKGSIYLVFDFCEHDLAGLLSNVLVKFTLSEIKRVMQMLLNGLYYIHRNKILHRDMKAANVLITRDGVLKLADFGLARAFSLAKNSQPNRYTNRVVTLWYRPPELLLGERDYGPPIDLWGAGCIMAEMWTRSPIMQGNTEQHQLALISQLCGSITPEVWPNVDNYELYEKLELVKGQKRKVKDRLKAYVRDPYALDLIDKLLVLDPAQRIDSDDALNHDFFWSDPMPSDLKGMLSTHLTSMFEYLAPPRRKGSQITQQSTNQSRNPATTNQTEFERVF
T1 sequence (O60563 whole entry partner): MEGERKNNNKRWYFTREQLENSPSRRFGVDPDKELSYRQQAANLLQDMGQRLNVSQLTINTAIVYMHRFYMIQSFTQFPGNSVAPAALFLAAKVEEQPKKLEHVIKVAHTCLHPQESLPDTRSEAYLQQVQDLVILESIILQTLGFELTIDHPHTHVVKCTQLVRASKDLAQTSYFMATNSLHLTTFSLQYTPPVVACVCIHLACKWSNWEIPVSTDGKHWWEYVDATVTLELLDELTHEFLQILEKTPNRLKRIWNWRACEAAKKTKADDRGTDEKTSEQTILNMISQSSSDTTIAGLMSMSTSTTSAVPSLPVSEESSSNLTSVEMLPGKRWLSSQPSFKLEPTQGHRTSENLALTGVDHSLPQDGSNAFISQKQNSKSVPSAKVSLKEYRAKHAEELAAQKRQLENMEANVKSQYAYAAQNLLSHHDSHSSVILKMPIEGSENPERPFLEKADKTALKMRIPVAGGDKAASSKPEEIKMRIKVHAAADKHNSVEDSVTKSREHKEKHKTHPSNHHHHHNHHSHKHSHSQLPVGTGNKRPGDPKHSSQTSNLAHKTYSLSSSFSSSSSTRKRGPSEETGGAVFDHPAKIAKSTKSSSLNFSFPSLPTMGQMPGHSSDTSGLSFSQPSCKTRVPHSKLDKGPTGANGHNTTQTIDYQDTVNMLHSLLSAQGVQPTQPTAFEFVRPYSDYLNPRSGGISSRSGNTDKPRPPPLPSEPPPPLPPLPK
Procedure: 1b. CDK9/CycT1 High ATP Kinase Assay
CDK9/CycT1-inhibitory activity of compounds of the present invention at a high ATP concentration after preincubation of enzyme and test compounds was quantified employing the CDK9/CycT1 TR-FRET assay as described in the following paragraphs.
Recombinant full-length His-tagged human CDK9 and CycT1, expressed in insect cells and purified by Ni-NTA affinity chromatography, were purchased from Life Technologies (Cat. No PV4131). As substrate for the kinase reaction biotinylated peptide biotin-Ttds-YISPLKSPYKISEG (C-terminus in amide form) was used which can be purchased e.g. form the company JERINI peptide technologies (Berlin, Germany).
(§1) For the assay 50 nl of a 100 fold concentrated solution of the test compound in DMSO was pipetted into either a black low volume 384 well microtiter plate or a black 1536 well microtiter plate (both Greiner Bio-One, Frickenhausen, Germany), 2 μl of a solution of CDK9/CycT1 in aqueous assay buffer [50 mM Tris/HCl pH 8.0, 10 mM MgCl2, 1.0 mM dithiothreitol, 0.1 mM sodium ortho-vanadate, 0.01% (v/v) Nonidet-P40 (Sigma)] were added and the mixture was incubated for 15 min at 22° C. to allow pre-binding of the test compounds to the enzyme before the start of the kinase reaction. […] The concentration of CDK9/CycT1 was adjusted depending of the activity of the enzyme lot and was chosen appropriate to have the assay in the linear range, typical concentrations were in the range of 0.5 μg/ml. The reaction was stopped by the addition of 3 μl of a solution of TR-FRET detection reagents (0.33 μM streptavidine-XL665 [Cisbio Bioassays, Codolet, France] and 1.67 nM anti-RB(pSer807/pSer811)-antibody from BD Pharmingen [#558389] and 2 nM LANCE EU-W1024 labeled anti-mouse IgG antibody [Perkin-Elmer, product no. AD0077]) in an aqueous EDTA-solution (167 mM EDTA, 0.2% (w/v) bovine serum albumin in 100 mM HEPES pH 7.5).
(§2) The resulting mixture was incubated 1 h at 22° C. to allow the formation of complex between the phosphorylated biotinylated peptide and the detection reagents. Subsequently the amount of phosphorylated substrate was evaluated by measurement of the resonance energy transfer from the Eu-chelate to the streptavidine-XL. Therefore, the fluorescence emissions at 620 nm and 665 nm after excitation at 350 nm was measured in a TR-FRET reader, e.g. a Pherastar (BMG Labtechnologies, Offenburg, Germany) or a Viewlux (Perkin-Elmer). The ratio of the emissions at 665 nm and at […] was taken as the measure for the amount of phosphorylated substrate. The data were normalised (enzyme reaction without inhibitor=0% inhibition, all other assay components but no enzyme=100% inhibition).

CDK2/CycE = target: T2, CDK2/CycE (Homo sapiens, UniProt P24941); experiment: CDK2/CycE high ATP kinase assay (TR-FRET); type: biochemical; conditions: 2 mM ATP, Method 2b
T2 construct: GST; purchased ProQinase GmbH (Freiburg, Germany); host or cells: insect cells (Sf9)
Procedure: 2b. CDK2/CycE High ATP Kinase Assay
CDK2/CycE-inhibitory activity of compounds of the present invention at 2 mM adenosine-tri-phosphate (ATP) was quantified employing the CDK2/CycE TR-FRET (TR-FRET=Time Resolved Fluorescence Energy Transfer) assay as described in the following paragraphs.
Recombinant fusion proteins of GST and human CDK2 and of GST and human CycE, expressed in insect cells (Sf9) and purified by Glutathion-Sepharose affinity chromatography, were purchase from ProQinase GmbH (Freiburg, Germany). As substrate for the kinase reaction biotinylated peptide biotin-Ttds-YISPLKSPYKISEG (C-terminus in amid form) was used which can be purchased e.g. form the company JERINI peptide technologies (Berlin, Germany).
as §1, with “CDK2/CycE” for “CDK9/CycT1”, “about 10 ng/ml.” for “in the range of 0.5 μg/ml.”, “(0.333” for “(0.33”, “AD0077, as an alternative a Terbium-cryptate-labeled anti-mouse IgG antibody from Cisbio Bioassays can be used])” for “AD0077])”
as §2

MOLM-13 cells = experiment: Proliferation assay, MOLM-13 (Cell Titre-Glo); type: cell-based; conditions: Homo sapiens; MOLM-13, 72-hour exposure; read-out: Inhibition of MOLM-13 cell proliferation IC50
Procedure: A2780 human ovarian carcinoma cells (ECACC #93112519) and non-adherent MOLM-13 human acute myeloid leukemia cells (DSMZ ACC 554) were seeded at a density of 3,000 cell/well (A2780) or 5,000 cells/well (MOLM-13) in a 96-well multititer plate in 150 μL of growth medium supplemented 10% fetal calf serum. After 24 hours, cell viability of one plate (zero-point plate) was determined with the Cell Titre-Glo Luminescent Cell Viability Assay (Promega), while the medium of the other plates was supplemented with the test substances in various concentrations (0 μM, as well as in the range of 0.0001-10 μM; the final concentration of the solvent dimethyl sulfoxide was adjusted to 0.1%) using a Hewlett-Packard HP D300 Digital Dispenser. Cell viability was assessed after 72-hour exposure with the Cell Titre-Glo Luminescent Cell Viability Assay (Promega). IC50 values (inhibitory concentration at 50% of maximal effect) were determined by means of a 4 parameter fit on measurement data which were normalized to vehicle (DMSO) treated cells (=100%) and measurement readings taken immediately before compound exposure (=0%).

IC50 (CDK9/CycT1) | Selectivity high ATP CDK9 over high ATP CDK2: IC50 (high ATP CDK2)/IC50 (high ATP CDK9) (CDK9/CycT1) | IC50 (CDK2/CycE) | IC50 (MOLM-13 cells) | Compound
3.4 nM | 249 | 855 nM | 7.1 nM | CC(C)(C)OC(=O)N=S(C)(=O)Cc1cc2cc(c1)OCCCCNc1cc(ccc1F)-c1nc(ncc1F)N2 (racemic) [Example 1, (rac)-tert-butyl [{[3,20-difluoro-13-oxa-5,7,18,25-tetraazatetracyclo[17.3.1.1^2,6.1^8,12]pentacosa-1(23),2(25),3,5,8(24),9,11,19,21-nonaen-10-yl]methyl}(methyl)oxido-λ^6-sulfanylidene]carbamate]
1.8 nM | 87 | 155 nM | 2 nM | CS(=N)(=O)Cc1cc2cc(c1)OCCCCNc1cc(ccc1F)-c1nc(ncc1F)N2 (racemic) [Example 2, (rac)-3,20-difluoro-10-[(S-methylsulfonimidoyl)methyl]-13-oxa-5,7,18,25-tetraazatetracyclo[17.3.1.1^2,6.1^8,12]pentacosa-1(23),2(25),3,5,8(24),9,11,19,21-nonaene]
0.8 nM | 606 | 464 nM | – | CC1CCCNc2cc(ccc2F)-c2nc(ncc2F)Nc2cc(CS(C)(=O)=O)cc(c2)O1 (racemic) [Example 8, (rac)-3,20-difluoro-14-methyl-10-[(methylsulfonyl)methyl]-13-oxa-5,7,18,25-tetraazatetracyclo[17.3.1.1^2,6.1^8,12]pentacosa-1(23),2(25),3,5,8(24),9,11,19,21-nonaene]
1.8 nM | 460 | 829 nM | 5.8 nM | CS(=N)(=O)Cc1cc2cc(c1)OCCCNc1cc(ccc1F)-c1nc(ncc1F)N2 (racemic) [Example 3, (rac)-3,19-difluoro-10-[(S-methylsulfonimidoyl)methyl]-13-oxa-5,7,17,24-tetraazatetracyclo[16.3.1.1^2,6.1^8,12]tetracosa-1(22),2(24),3,5,8(23),9,11,18,20-nonaene]
